A value given as a limit tells only on which side of the number the result lay.

The record followed here is US7186743B2, “Substituted pyrazolyl compounds for the treatment of inflammation” (Pharmacia Corporation, priority 2001, dated 2007).

For one assay, the target named is T1, IKK2 (Homo sapiens, UniProt O14920).
T1 construct: made in house; host or cells: insect cells (baculovirus, pFastBac; SF9)
T1 sequence (O14920 1-756): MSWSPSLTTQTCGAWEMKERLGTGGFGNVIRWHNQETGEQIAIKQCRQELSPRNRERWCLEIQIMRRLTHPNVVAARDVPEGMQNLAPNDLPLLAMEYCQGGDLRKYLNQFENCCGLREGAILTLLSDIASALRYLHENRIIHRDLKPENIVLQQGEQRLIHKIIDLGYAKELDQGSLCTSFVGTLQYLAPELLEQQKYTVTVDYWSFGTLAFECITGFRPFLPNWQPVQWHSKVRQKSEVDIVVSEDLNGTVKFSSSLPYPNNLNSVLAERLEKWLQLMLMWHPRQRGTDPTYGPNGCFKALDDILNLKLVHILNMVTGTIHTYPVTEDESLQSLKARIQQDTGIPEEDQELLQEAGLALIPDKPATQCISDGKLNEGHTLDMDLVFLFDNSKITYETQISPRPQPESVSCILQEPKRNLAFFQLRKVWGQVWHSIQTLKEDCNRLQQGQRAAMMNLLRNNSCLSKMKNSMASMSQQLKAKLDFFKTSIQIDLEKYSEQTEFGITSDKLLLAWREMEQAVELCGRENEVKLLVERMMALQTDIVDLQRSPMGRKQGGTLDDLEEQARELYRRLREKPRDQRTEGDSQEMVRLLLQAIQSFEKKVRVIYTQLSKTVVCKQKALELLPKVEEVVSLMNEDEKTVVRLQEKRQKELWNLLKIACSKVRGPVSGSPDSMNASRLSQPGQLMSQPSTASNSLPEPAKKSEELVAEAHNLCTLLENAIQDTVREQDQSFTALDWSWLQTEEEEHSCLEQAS
Description: IKKβ Resin Enzyme Assay (IKK2 resin). Conditions: Table 2; read-out: IKK Resin IC50. Type of assay: biochemical. The source says: cDNAs of human IKK1 and IKK2 were amplified by reverse transcriptase-polymerase chain reaction from human placental RNA (Clonetech). hIKK1 was subcloned into pFastBac HTa (Life Technologies) and expressed as N-terminal His6-tagged fusion protein. The hIKK2 cDNA was amplified using a reverse oligonucleotide primer which incorporated the peptide sequence for a FLAG-epitope tag at the C-terminus of the IKK2 coding region ([…]). The hIKK2:FLAG cDNA was subcloned into the baculovirus vector pFastBac. The rhIKK2 ([…]) mutant was constructed in the same vector used for wild type rhIKK2 using a QuikChange™ mutagenesis kit (Stratagene). Viral stocks of each construct were used to infect insect cells grown in 40 L suspension culture. […] Cell lysates were stored at −80° C. until purification of the recombinant proteins was undertaken as described below.
A 10-liter culture of baculovirus-expressing IKK2 tagged with FLAG peptide was centrifuged and the cell pellet (MOI=0.1 and I=72 hrs) was re-suspended in buffer A. These cells were microfluidized, and centrifuged at 100,000×g for 45 min. Supernatant was passed over a G-25 column equilibrated with Buffer A. Protein peak was collected and incubated with anti-FLAG affinity resin on a rotator overnight in buffer B. The resin was washed in batch with 10–15 bed volumes of buffer C. Washed resin was poured into a column and rhIKK2 homodimer was eluted using 5 bed volumes of buffer B containing FLAG peptide. 5 mM DTT, 0.1% NP-40 and BSA (concentrated to 0.1% in final amount) was added to the eluted enzyme before concentrating in using an Amicon membrane with a molecular weight cut-off of 30 kDa. Enzyme was aliquoted and stored at −80° C.
IKKβ kinase activity was measured using a biotinylated IκBα peptide ([…]32-Gly-Leu-Asp-Ser36-Met-Lys-Asp-Glu-Glu) (American Peptide Co.). […] ATP (Amersham) (about 1×10^5 cpm), 1 μM ATP (Sigma), 1 mM DTT (Sigma), 2 mM MgCl2 (Sigma), 2 mM MnCl2 (Sigma), 10 mM NaF (Sigma), 25 mM Hepes (Sigma) buffer, pH 7.6 and 20 μl enzyme solution and 10 ul inhibitor in a final volume of 50 μl. After incubation at 25° C. for 30 min, 150 μl resin (Dowex anion-exchange resin AG1X8 200–400 mesh) in 900 mM formate, pH 3.0 was added to each well to stop the reaction. Resin was allowed to settle for one hour and 50 ul of supernatant was removed to a Micolite-2 flat bottom plate (Dynex). 150 μl of scintillation fluid (Microscint 40) (Packard) was added to each well. Incorporation of [γ-^33P] ATP was measured using a Top-Count NXT (Packard).
For `CS(=O)(=O)c1ccc(-n2nc(C(N)=O)c3c2-c2cc(NC(=O)c4cc(N=[N+]=[N-])ccc4[N+](=O)[O-])ccc2CC3)cc1` [Example 121, 8-[(5-azido-2-nitrobenzoyl)amino]-1-[4-(methylsulfonyl)phenyl]-4,5-dihydro-1H-benzo[g]indazole-3-carboxamide], the IC50 is not above 1000 nM. For `CS(=O)(=O)c1ccc(-n2nc(C(N)=O)c3c2-c2cc(NC(=O)c4ccc(N=[N+]=[N-])cc4)ccc2CC3)cc1` [Example 122, 8-[(4-azidobenzoyl)amino]-1-[4-(methylsulfonyl)phenyl]-4,5-dihydro-1H-benzo[g]indazole-3-carboxamide], the half-maximal inhibitory concentration (IC50) was not above 1000 nM.

Regarding `CS(=O)(=O)c1ccc(-n2nc(C(N)=O)c3c2-c2cc(NC(=O)c4cc(Cl)cnc4Cl)ccc2CC3)cc1` [Example 123, 8-{[(2,5-dichloropyridin-3-yl)carbonyl]amino}-1-[4-(methylsulfonyl)phenyl]-4,5-dihydro-1H-benzo[g]indazole-3-carboxamide], the 50% inhibitory concentration (IC50) was not above 1000 nM. Same read-out and setting: with `CS(=O)(=O)c1ccc(-n2nc(C(N)=O)c3c2-c2cc(NC(=O)c4cc5c(cc4Cl)OCO5)ccc2CC3)cc1` [Example 125, 8-{[(6-chloro-1,3-benzodioxol-5-yl)carbonyl]amino}-1-[4-(methylsulfonyl)phenyl]-4,5-dihydro-1H-benzo[g]indazole-3-carboxamide] the figure was not above 1000 nM; with `CN1CCN(c2ccc(Cl)c(C(=O)Nc3ccc4c(c3)-c3c(c(C(N)=O)nn3-c3ccc(S(C)(=O)=O)cc3)CC4)c2)CC1` [Example 126, 8-{[2-chloro-5-(4-methylpiperazin-1-yl)benzoyl]amino}-1-[4-(methylsulfonyl)phenyl]-4,5-dihydro-1H-benzo[g]indazole-3-carboxamide], not above 1000 nM.

Still in this assay, the particulars now being: Table 3; read-out: IKK Resin IC50.
Consider `COc1cc(Cl)c(C(=O)Nc2ccc3c(c2)-c2c(c(C(N)=O)nn2-c2ccc(S(C)(=O)=O)cc2)CC3)cc1OC` [Example 131, 8-[(2-chloro-4,5-dimethoxybenzoyl)amino]-1-[4-(methylsulfonyl)phenyl]-4,5-dihydro-1H-benzo[g]indazole-3-carboxamide], for which the IC50 was not above 1000 nM. Still for that read-out and setting: to `CS(=O)(=O)c1ccc(-n2nc(C(N)=O)c3c2-c2cc(NC(=O)c4ccc(Cl)cc4[N+](=O)[O-])ccc2CC3)cc1` [Example 132, 8-[(4-chloro-2-nitrobenzoyl)amino]-1-[4-(methylsulfonyl)phenyl]-4,5-dihydro-1H-benzo[g]indazole-3-carboxamide] belongs not above 1000 nM; to `CS(=O)(=O)c1ccc(-n2nc(C(N)=O)c3c2-c2cc(NC(=O)c4c(F)cccc4Cl)ccc2CC3)cc1` [Example 134, 8-[(2-chloro-6-fluorobenzoyl)amino]-1-[4-(methylsulfonyl)phenyl]-4,5-dihydro-1H-benzo[g]indazole-3-carboxamide], not above 1000 nM; to `CS(=O)(=O)c1ccc(-n2nc(C(N)=O)c3c2-c2cc(NC(=O)c4cccc([N+](=O)[O-])c4Cl)ccc2CC3)cc1` [Example 135, 8-[(2-chloro-3-nitrobenzoyl)amino]-1-[4-(methylsulfonyl)phenyl]-4,5-dihydro-1H-benzo[g]indazole-3-carboxamide], not above 1000 nM.

As to `CS(=O)(=O)c1ccc(-n2nc(C(N)=O)c3c2-c2cc(NC(=O)c4cc(Br)ccc4Cl)ccc2CC3)cc1` [Example 136, 8-[(5-bromo-2-chlorobenzoyl)amino]-1-[4-(methylsulfonyl)phenyl]-4,5-dihydro-1H-benzo[g]indazole-3-carboxamide], the half-maximal inhibitory concentration (IC50) was not above 1000 nM. Same read-out and setting: to `CSc1ccc(Cl)c(C(=O)Nc2ccc3c(c2)-c2c(c(C(N)=O)nn2-c2ccc(S(C)(=O)=O)cc2)CC3)c1` [Example 137, 8-{[2-chloro-5-(methylthio)benzoyl]amino}-1-[4-(methylsulfonyl)phenyl]-4,5-dihydro-1H-benzo[g]indazole-3-carboxamide] belongs not above 1000 nM; to `Cc1ccc(C(=O)Nc2ccc3c(c2)-c2c(c(C(N)=O)nn2-c2ccc(S(C)(=O)=O)cc2)CC3)c(Cl)n1` [Example 138, 8-{[(2-chloro-6-methylpyridin-3-yl)carbonyl]amino}-1-[4-(methylsulfonyl)phenyl]-4,5-dihydro-1H-benzo[g]indazole-3-carboxamide], not above 1000 nM.

`CS(=O)(=O)c1ccc(-n2nc(C(N)=O)c3c2-c2cc(NC(=O)c4cc(Cl)ccc4[N+](=O)[O-])ccc2CC3)cc1` [Example 139, 8-[(5-chloro-2-nitrobenzoyl)amino]-1-[4-(methylsulfonyl)phenyl]-4,5-dihydro-1H-benzo[g]indazole-3-carboxamide]: the IC50 was not above 1000 nM.

Consider `CS(=O)(=O)c1ccc(-n2nc(C(N)=O)c3c2-c2cc(NC(=O)c4ccccc4)ccc2CC3)cc1` [Example 140, 8-(benzoylamino)-1-[4-(methylsulfonyl)phenyl]-4,5-dihydro-1H-benzo[g]indazole-3-carboxamide], for which the IC50 was not above 1000 nM. As for `COc1ccc(C(=O)Nc2ccc3c(c2)-c2c(c(C(N)=O)nn2-c2ccc(S(C)(=O)=O)cc2)CC3)cc1` [Example 143, 8-[(4-methoxybenzoyl)amino]-1-[4-(methylsulfonyl)phenyl]-4,5-dihydro-1H-benzo[g]indazole-3-carboxamide], the IC50 was not above 1000 nM. On the same count and under the same terms, to `CS(=O)(=O)c1ccc(-n2nc(C(N)=O)c3c2-c2cc(NC(=O)c4ccc(C#N)cc4)ccc2CC3)cc1` [Example 144, 8-[(4-cyanobenzoyl)amino]-1-[4-(methylsulfonyl)phenyl]-4,5-dihydro-1H-benzo[g]indazole-3-carboxaniide] belongs not above 1000 nM. Same read-out and setting: to `CS(=O)(=O)c1ccc(-n2nc(C(N)=O)c3c2-c2cc(NC(=O)c4ccc([N+](=O)[O-])cc4Cl)ccc2CC3)cc1` [Example 146, 8-[(2-chloro-4-nitrobenzoyl)amino]-1-[4-(methylsulfonyl)phenyl]-4,5-dihydro-1H-benzo[g]indazole-3-carboxamide] belongs not above 1000 nM; to `COc1ccc([N+](=O)[O-])c(C(=O)Nc2ccc3c(c2)-c2c(c(C(N)=O)nn2-c2ccc(S(C)(=O)=O)cc2)CC3)c1` [Example 147, 8-[(5-methoxy-2-nitrobenzoyl)amino]-1-[4-(methylsulfonyl)phenyl]-4,5-dihydro-1H-benzo[g]indazole-3-carboxamide], not above 1000 nM; to `CS(=O)(=O)c1ccc(-n2nc(C(N)=O)c3c2-c2cc(NC(=O)c4cc(SC#N)ccc4[N+](=O)[O-])ccc2CC3)cc1` [Example 148, 3-[({3-(aminocarbonyl)-1-[4-(methylsulfonyl)phenyl]-4,5-dihydro-1H-benzo[g]indazol-8-yl}amino)carbonyl]-4-nitrophenylthiocyanate], not above 1000 nM. Same read-out and setting: to `CS(=O)(=O)c1ccc(-n2nc(C(N)=O)c3c2-c2cc(NC(=O)c4cc(F)c(F)cc4[N+](=O)[O-])ccc2CC3)cc1` [Example 149, 8-[(4,5-difluoro-2-nitrobenzoyl)amino]-1-[4-(methylsulfonyl)phenyl]-4,5-dihydro-1H-benzo[g]indazole-3-carboxamide] belongs not above 1000 nM.

One may read the IC50 as the point on the concentration scale where inhibition reaches its midpoint.
